Laboratory results as given in ChEMBL document CHEMBL1201862, “PubChem BioAssay data set” (2004).
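96-well plates; 48 h exposure; 5 concentrations. Endpoints by linear interpolation between flanking doses. Not reached: highest tested concentration assigned. GI50 = concentration required for 50% inhibition of growth.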 Active and inactive are the calls of the source. Cut-off read from the data, not from the text of the source: active = GI50 up to about 1.1 µM and inactive = higher.

Tests used:
Test in all cases: inhibition of tumour cell growth, NCI panel, 48 h
A549 = system: A549
COLO 205 = system: COLO 205
EKVX = system: EKVX
HCC 2998 = system: HCC 2998
HOP-62 = system: HOP-62
HOP-92 = system: HOP-92
HT-29 = system: HT-29
M14 = system: M14
Malme-3M = system: Malme-3M
NCI-H460 = system: NCI-H460
NCI/ADR-RES = system: NCI/ADR-RES
OVCAR-8 = system: OVCAR-8
SF-295 = system: SF-295
SK-MEL-2 = system: SK-MEL-2
SN12C = system: SN12C
SNB-75 = system: SNB-75
TK-10 = system: TK-10
NCI-H522 = system: NCI-H522
NCI-H226 = system: NCI-H226

Measured: GI50

N#C[C@H]1Nc2ccccc2[C@@H](O)C1O (stereo not given in full)
inactive: A549 > 100 µM | COLO 205 > 100 µM | EKVX > 100 µM | HCC 2998 > 100 µM | HOP-62 > 100 µM | HOP-92 > 100 µM | HT-29 > 100 µM | M14 > 100 µM | Malme-3M > 100 µM | NCI-H460 > 100 µM | NCI/ADR-RES > 100 µM | OVCAR-8 > 100 µM | SF-295 > 100 µM | SK-MEL-2 > 100 µM | SN12C > 100 µM | SNB-75 > 100 µM | TK-10 > 100 µM

COC(=O)[C@]12C3=C(O)C(=O)C[C@H]1OC[C@H]2C=CC3
inactive: A549 > 100 µM | COLO 205 > 100 µM | EKVX > 100 µM | HCC 2998 > 100 µM | HOP-62 > 100 µM | HOP-92 > 100 µM | M14 > 100 µM | Malme-3M > 100 µM | NCI-H460 > 100 µM | NCI-H522 20.1 µM | NCI/ADR-RES > 100 µM | OVCAR-8 > 100 µM | SF-295 > 100 µM | SK-MEL-2 > 100 µM | SN12C > 100 µM | SNB-75 > 100 µM | TK-10 > 100 µM

CC(C)(C)c1ccc(O)c(CN(Cc2cc(C(C)(C)C)ccc2O)C2CCCCC2)c1
inactive: A549 16.2 µM | COLO 205 2.2 µM | EKVX 17.5 µM | HCC 2998 2.01 µM | HOP-62 18.5 µM | HOP-92 16 µM | HT-29 16.1 µM | M14 13.6 µM | Malme-3M 15.8 µM | NCI-H460 16.7 µM | NCI-H522 15.8 µM | NCI/ADR-RES 20.3 µM | OVCAR-8 15.9 µM | SF-295 17.7 µM | SK-MEL-2 18.5 µM | SN12C 16.4 µM | SNB-75 23.3 µM | TK-10 17.7 µM

C[C@H]1[C@H]2[C@H]3CC[C@@H]4[C@@]5(C)CC[C@H](O)C(C)(C)[C@@H]5CC[C@@]4(C)[C@]3(C)C[C@H](O)[C@@]2(C)C[C@H]2O[C@]21C
inactive: A549 16.7 µM | COLO 205 24 µM | EKVX 24.2 µM | HCC 2998 17.5 µM | HOP-62 20.7 µM | HOP-92 17.7 µM | HT-29 14.3 µM | M14 25.5 µM | Malme-3M 20 µM | NCI-H460 18.9 µM | NCI-H522 22.3 µM | NCI/ADR-RES 18.5 µM | OVCAR-8 19.6 µM | SF-295 15.6 µM | SK-MEL-2 19 µM | SN12C 16.9 µM | TK-10 22.3 µM

CCCCCCCCCCCCN1[C@H]2CCC[C@H]2C(O)[C@@H]2CCC[C@@H]21 (stereo not given in full)
inactive: A549 > 100 µM | COLO 205 > 100 µM | HCC 2998 > 100 µM | HOP-62 > 100 µM | HOP-92 > 100 µM | HT-29 > 100 µM | M14 > 100 µM | NCI-H226 96.6 µM | NCI-H460 > 100 µM | NCI/ADR-RES > 100 µM | OVCAR-8 > 100 µM | SK-MEL-2 > 100 µM | SN12C 52.8 µM | SNB-75 > 100 µM

N#CC1C(=O)NC2=C(CCOc3c2ccc2ccccc32)C1c1ccc(F)cc1 (stereo not given)
inactive: A549 25.2 µM | COLO 205 61 µM | EKVX 36 µM | HCC 2998 23.9 µM | HOP-62 18.5 µM | HOP-92 7.46 µM | M14 26.1 µM | Malme-3M 27.8 µM | NCI-H460 29.9 µM | NCI-H522 37.1 µM | NCI/ADR-RES 14.9 µM | OVCAR-8 33.3 µM | SF-295 20.4 µM | SK-MEL-2 29.8 µM | SN12C 10.8 µM | SNB-75 20.2 µM | TK-10 23.4 µM
